Laboratory results taken from article PMC11788822, “Uncovering the potent antimicrobial activity of squaramide based anionophores – chloride transport and membrane disruption” (Chemical Science, 2025).
Several values for one entry are separate records, joined by “and”; a condition that tells them apart may be missing. Equal entries are not always repeated. Where two headings read alike, the source gives them in different places. Marks after values point to notes of the source that are not given here.

Columns and labels:
[1] = Lucigenin Cl−/NO3− exchange assay in LUVs; conditions: Cl− transport, 0.4 mM POPC/cholesterol 7:3 LUVs, Hill fit at 270 s
Method: Given our objective was to use such transport behaviour as a method to disrupt anion homeostasis in bacteria, we also conducted anion transport assays in Large Unilamellar Liposomes (LUVs) using the well-established Lucigenin-based Cl^−/NO3^− exchange assay.[40] Briefly, LUVs containing the chloride sensitive dye lucigenin in a NaNO3 solution were prepared and a NaCl pulse was added to create a chloride concentration gradient. Upon addition of the putative transporter, the quenching of the fluorescence of lucigenin was monitored over time to assess Cl^− influx.
Lucigenin Cl-/NO3- anion exchange assay
LUV preparation and Lucigenin assays were carried out following procedures outlined by Valkenier and co-workers.8 Large unilamellar liposomes (LUVs) were synthesized using 1-palmitoyl-2-oleoyl-sn-glycero-3-phosphocholine (POPC)(11.2 µmol, soln. in CHCl3) and Cholesterol (4.8 µmol) mixed in a ratio of 7:3. This mixture was brought to dryness under gentle vacuum and subsequently, the mixture was rehydrated in an aqueous Lucigenin solution (1 mL, 0.8mM lucigenin in 225 mM NaNO3) and stirred for 1 h to obtain heterogeneous vesicles. After that, the vesicles underwent 9 freeze-thaw cycles and were extruded through a […] polycarbonate membrane 29 times to obtain monodisperse LUVs. A Sephadex G-100 size-exclusion column was employed to remove any unencapsulated lucigenin. The collected liposomes were diluted to 40 mL with 225 mM NaNO3 to obtain a homogeneous 0.4 mM liposome solution. Lucigenin fluorescence quenching was monitored in a time dependent manner using an Agilent Spectrofluorimeter to access Cl- influx (λ ex = 430 nm, λem = 505 nm).
Cl- transport behaviour was initiated at t=0 s by adding each compound as a solvate in DMSO followed by a 25 mM NaCl pulse (75µL, 1 M NaCl in […] NaNO3) to a 3 mL liposome solution. The data was collected for at least 600 s and then Triton X-100 (5% w/w in water) was added to lyse the liposomes, and normalize to 100% efflux. The recorded data was normalised and the fraction fluorescence intensity at 270 s of each tested concentration of transporters (mol%) was plotted against transporter concentration (mol%). The data obtained was fitted to the Hill equation to obtain the EC50 value at 270 s (the concentration to obtain the half maximum effect) by using Originlab 2024b or Graphpad Prism 10:
y = START + (END ‒ START) ∗ xn/(kn + xn)
Where n is the Hill coefficient, k presents the EC 50 value.

S. aureus = experiment: Modified MTT assay of cellular respiration; type: cell-based, Staphylococcus aureus; conditions: HBSS, Cl− free HBSS or Na+ free HBSS buffer, 5 h treatment
Description: To further probe the relationship between anion homeostasis and antimicrobial effect, a modified MTT assay was used next to monitor disruption of cellular respiration in the presence of 1, 2, or 4 either with abundant Cl^− and Na^+, in the absence of Cl^−, or in the absence of Na^+ (Fig. 3). […] Chew and co-workers have reported on the behaviours, and dynamics of adamantylamines in the lipid bilayers, and discussed that adamantylamines show a preferential accumulation in the interfacial layer of lipid bilayers[46] and thus we suspected that these compounds, with an identical pharmacophore may behave in a similar manner accumulating in lipid bilayers of bacterial membranes.[47,48] […]
or measured over the course of 2 hrs, starting at T0 (upon addition of compound).
Alternatively, 200 µL aliquots of cell suspension were added to a 96-well plate, to the desired quantity, and were either untreated (control), or treated with the compound of interest for 5 mins, whereafter fluorescence was read using a BMG Labtech Clariostar Plus platereader, and plotted relative to control.
From an overnight culture of S. aureus brought to stationary phase (OD600 = ~1.0), was taken samples which were diluted to an OD600 = ~0.2 in either Hank’s buffered salt solution, Cl- free HBSS buffer, or Na+ free buffer. Samples were treated with the respective compound for 5 h at 37 0C. Subsequently, Cell densities for each of the samples were standardised to an OD600 = 0.15, in the relevant buffer system. To each sample was added Triphenyl Tetrazolium Chloride (TTC), to a final concentration of 0.5 mg/mL. 100 µL of each sample was placed into the wells of a 96-well place in 8 replicates. Samples were incubated at 37 0C for 18 h, and subsequently supernatant was removed from each well, taking care as to not disturb the Formazan precipitate. To each well was then added 100 µL DMSO, with repeated pipetting to solubilise precipitate. Samples were read using a microplate reader at 550 nm & plotted as percentage cell viability relative to control. […]

[2] = parameters: method as in PMID 34709282; conditions: Cl− transport; Reported by Gale and co-workers; cited from earlier work

In the case of `O=c1c(Nc2cc(C(F)(F)F)cc(C(F)(F)F)c2)c(NC23CC4CC(CC(C4)C2)C3)c1=O` [Compound 1], the “EC50 (mol%)” value [1] is reported as 0.0836 mol% and 0.084 mol% and the “effect on cellular respiration (MTT)” value (S. aureus) is reported as “concentration dependent decrease in cellular respiration”.

For `O=c1c(Nc2ccc(Cl)c(Cl)c2)c(NC23CC4CC(CC(C4)C2)C3)c1=O` [Compound 2], the “EC50 (mol%)” value [1] was 0.0993 mol% and the “effect on cellular respiration (MTT)” value (S. aureus) was “concentration dependent decrease in cellular respiration”.

In the case of `O=c1c(Nc2ccc([N+](=O)[O-])cc2)c(NC23CC4CC(CC(C4)C2)C3)c1=O` [Compound 4], the “EC50 (mol%)” value [2] is listed as 0.031 ^a mol% and the “effect on cellular respiration (MTT)” value (S. aureus) is listed as “concentration dependent decrease in cellular respiration”.
